Laboratory results: patent EP1542016A1, “PUMA, phosphorylated p53 and p38 map kinase as markers for HIV-1-induced apoptosis in circulating T cells of infected patient” (Institut Gustave Roussy, priority 2003, dated 2005)

Experiments:
Jurkat cells = assay: Apoptosis and Puma induction by recombinant gp120 protein in Jurkat cells; type: cell-based; settings: four days, gp120 500 ng/ml, cyclic pifithrin-α 10 µM, Fig. 8E
Protocol: Figure 8D. Induction of Puma by recombinant gp120 protein in Jurkat cells (as in figure 8B).
Figure 8E. Effect of cyclic pifithrin-alpha. Jurkat cells were treated for four days with gp120 protein (500 ng/ml) and or cyclic pifithrin-α (10 µM), followed by determination of Puma expression.
(§1) HeLa cells stably transfected with the Env gene of HIV-1 LAI (HeLa Env) and HeLa cells transfected with CD4 (HeLa CD4) were cocultured at a 1:1 ratio (6), in DMEM medium supplemented with 10 % FCS, L-glutamine, in the absence or presence of roscovitin (1 µM), rapamycin (1 µM, Sigma), cyclic pifithrin-α (10 µM), MG132 (5 µM, Calbiochem), the NF-κB-inhibitory peptide SN50, or its negative control SN50M (20 µM, Biomol). HeLa/U937 cell co-cultures were performed at different ratios (6). U937 or Jurkat cells were cultured with recombinant gp120 protein (500 ng/ml).

Env-induced syncytia = settings: cited from earlier work
Env-elicited syncytia = type: cell-based; settings: SN50 20 µM, cyclic pifithrin-α 10 µM, added at the beginning of co-culture; Fig. 7D
Protocol: HeLa/U937 cell co-cultures were performed at different ratios (6). U937 or Jurkat cells were cultured with recombinant gp120 protein (500 ng/ml).

U937 cells = assay: Induction of Puma in U937 cells co-cultured with HeLa Env cells; type: cell-based; parameters: dose or concentration left out as unconfirmed; settings: 36 hours, Fig. 8A
Protocol: Figure 8A. Induction of Puma in U937 cells co-cultured with HeLa Env cells. U937 cells were mixed at different ratios with HeLa Env cells, just before the preparation of cell lysates for immunoblot detection of Puma (Control) or coculture for 36 hours, in the absence or presence of the p53 inhibitor cyclic pifithrin α […]. The percentage of dead U937 cells was determined by trypan blue exclusion.
as §1
Protein samples were prepared from HeLa Env and HeLa CD4 single cells mixed at a 1:1 ratio in lysis buffer (single cells control) or from HeLa Env/CD4 syncytia. Proteins samples from HeLa Env and U937 mixed at different ratios were also prepared and subjected to immunoblot analysis. […]

## Cc1ccc(-c2cn3c4c(sc3n2)CCCC4)cc1 [pifithrin-α, cyclic pifithrin-α]
Jurkat cells
  gp120-induced apoptosis and Puma expression: strongly inhibited
Env-induced syncytia; reference (5)
  syncytium-dependent cell death: blocked
Env-induced syncytia; references (5, 7)
  Env-induced upregulation of Bax: prevents
  syncytial cell death: retards
Env-elicited syncytia
  activation of Bax and Bak: inhibited
U937 cells
  upregulation of Puma: not inhibited
